Legend:
[1] = system: mice administered with β-amyloid(1-42); experiment: Passive avoidance test in mice given β-amyloid(1-42) into the cerebral ventricle; format: in vivo, mouse; conditions: for dementia-preventive effect in passive avoidance test: FIGS. 7A and 7B
Experimental: (§1) The administration of β-amyloid(1-42) to a mouse was carried out in accordance with the method described by Laursen & Belknap(J. Pharmacol. Methods, 16, 355-357 (1986)). Specifically, 5 μl of phosphate-buffered saline containing 1.85 μg of β-amyloid(1-42) was put in a 50 μl Hamilton syringe fitted with a 26 gauge needle, the tip of the needle was inserted into the bregma of the mouse and then the β-amyloid(1-42) solution was administered thereto. Each mouse of a control group received an equal amount of β-amyloid(42-1) in place of β-amyloid(1-42). A passive avoidance test was carried out at days 1-2 (day 1: training, day 2: test) and a Y-maze test, at days 3-4 (day 3: training, day 4: test) after the administration.
In order to examine the learning and memory-retention ability of a mouse, a passive avoidance test was carried out in accordance with the method described in Song et al., J. Neurochem., 71, 875-878 (1998), as follows.
A passive avoidance case equipped with a light room and a dark room was prepared, the floor of the dark room being designed to deliver an electrical shock to a test animal. First, a mouse was put in the light room and, upon entering the dark room, it received an electrical shock at 0.25 mA for 1 sec. Twenty-four hours after the training, the mouse was put in the light room again and the time it took to enter the dark room was measured as a passive avoidance time. The maximum time was set at 300 sec., i.e., in case when the mouse took more than 300 sec. to enter the dark room, the passive avoidance time was determined to be 300 sec.
Forty 4- to 5-week old mice each weighing 20 to 25 g were divided into four groups of equal number. The Angelicae gigas Nakai extract prepared in Example 1 was dissolved in water to concentrations of 0.08% (w/v) and 0.1% (w/v), respectively, and the mice of two groups were provided with the resulting solutions instead of water for 4 weeks at a daily dose of 8 ml of the solution/mouse. The mice of the other two groups were provided with normal drinking water for 4 weeks. Thereafter, the mice of one of the two normal drinking water groups were administered into their cerebral ventricle with 1.85 μg of β-amyloid(42-1) (“control group”) and the mice of the remaining three groups, with β-amyloid(1-42) (Aβ1-42), as in Reference Example 1. Then, a passive avoidance test was carried out for each group of mice as in Reference Example 2 and the data attained were averaged for each group.
Fifty 4- to 5-week old mice each weighing 20 to 25 g were divided into five groups by equal number. Ferulic acid was dissolved in water to concentrations of 0.002 % (w/v), 0.004 % (w/v) and 0.006 % (w/v), respectively, and the mice of three groups were provided with the resulting solutions instead of water for 4 weeks at a daily dose of 8 ml of the solution/mouse. The mice of the other two groups were provided with normal drinking water for 4 weeks. Thereafter, the mice of one of two normal drinking water groups were administered into their cerebral ventricle with 1.85 μg of β-(42-1) (“control group”) and the mice of the remaining four groups, with β-amyloid(1-42) (Aβ1-42), as in Reference Example 1. Then, a passive avoidance test was carried out for each group of mice as in Reference Example 2 and the data attained were averaged for each group.
Forty 4- to 5-week old mice each weighing 20 to 25 g were divided into four groups of equal number. […]

[2] = system: mice administered with β-amyloid(1-42); experiment: Y-maze test in mice given β-amyloid(1-42) into the cerebral ventricle; format: in vivo, mouse; conditions: for alternation behavior (%): compared with the group given β-amyloid(1-42) only
Experimental: as §1
Spontaneous alternation behavior of a mouse was examined by a Y-maze test in accordance with the method described in Starter et al., Psychopharmacology, 94, 491-495 (1988) as follows.
The Y-maze consisted of three arms shaped like Y. A test mouse was placed in one of the arms such that it faced the arm's terminal and allowed to roan freely through the three arms for […]. The number of alternation was determined by counting the number of occasions the mouse passed the three arms consecutively. Spontaneous alternation behavior was determined as the percentage of the alternation number based on the total number of arm entries.
Further, Y-maze tests were carried out employing the above-prepared mice as in Reference Example 3.
Forty 4- to 5-week old mice each weighing 20 to 25 g were divided into four groups of equal number. Decursinol was dissolved in corn oil, mixed with a mouse fodder, and the mice of two groups were provided with the resulting fodder for 4 weeks at a daily dose of 7.5 mg decursinol/kg or 15 mg decursinol/kg. The mice of the other two groups were provided with a normal mouse fodder containing an equal amount of corn oil as above for 4 weeks. Thereafter, the mice of one of the two normal fodder groups were administered, into their cerebral ventricle, with 1.85 μg of β-(42-1) (“control group”) and the mice of the remaining three groups, with β-amyloid(1-42) (Aβ1-42), as in Reference Example 1. Then, a passive avoidance test and a Y-maze test were carried out for each group of mice as in Reference Examples 2 and 3, respectively, and the data attained were averaged for each group.

OX-42 = experiment: Immunohistochemical staining of OX-42 in pyriform cortex and amygdaloid nucleus; format: in vivo, mouse; conditions: 0.006% (w/v) in drinking water for 4 weeks; 1 day after β-amyloid(1-42); compared with β-amyloid(1-42) only; FIGS. 8c and 8f
Experimental: 4- to 5-week old mice each weighing 20 to 25 g was divided into three groups. Ferulic acid was dissolved in water to a concentration of 0.006% (w/v), and the mice of one group were provided with the resulting solution instead of water for 4 weeks. The mice of other two groups were provided with normal drinking water for 4 weeks. Thereafter, the mice of one of two normal drinking water groups were administered, into their cerebral ventricle, with 1.85 μg of β-amyloid(42-1) (“control group”) and the mice of the remaining two groups, with β-amyloid(1-42) (Aβ1-42), as in Reference Example 1.
One day after the administration of β-amyloid, each of the mice was anesthetized with sodium pentobarbital and its abdomen was incised. The mouse was fixed by passing 4% paraformaldehyde through its left ventricle and its brain was excised.
In accordance with the method described in Cho et al., J. Comp. Neurol., 369: 264-276(1996), a section was prepared from the excised brain and immunohistochemical staining was carried out in order to stain […] in the pyriform cortex and the amygdaloid nucleus by employing 1:500 dilution of anti-OX-42 antibody (Halan (Sera-Lab)).

[3] = system: primary mouse cortical culture; experiment: β-amyloid(1-42)-induced leakage of lactate dehydrogenase (LDH) from cultured neurons; format: cell-based; conditions: 100 μM, 30 minutes before 25 μM β-amyloid(1-42); 24 and 48 hours; compared with β-amyloid(1-42) group; FIG. 10
Experimental: The culture of mouse cerebral neurons was divided into three groups. Neurons of one group received no treatment (control group). […] The degree of damage in neurons was determined by measuring the concentration of lactate dehydrogenase (LDH), which was released from the damaged or disrupted neurons into the culture medium, in accordance with the method of Wie et al. Samples of the culture medium were taken at 24 and 48 hours after the administration of β-amyloid(1-42), respectively, and their LDH concentrations were measured with a microplate reader.

[4] = system: choline acetyltransferase (ChAT); experiment: Immunohistochemical staining of ChAT in septal nucleus; format: in vivo, mouse; conditions: 0.006% (w/v) in drinking water for 4 weeks; 5 days after β-amyloid(1-42); FIG. 9c
Experimental: Three groups of mice were administered with ferulic acid and/or β-amyloid in accordance with the method of (1). 5 days after the administration of β-amyloid, immunohistochemical staining was carried out according to the method of (1) except for employing 1:750 dilution of anti-choline-acetyltransferase (ChAT) antibody (Chemicon) in order to stain ChAT, an enzyme for acetylcholine synthesis, in the septal nucleus wherein acetylcholine neurons are distributed.

Compound	decrease in the passive avoidance response time due to β-amyloid(1-42) ([1]; 7.5 or 15 mg/kg daily in fodder for 4 weeks, FIG. 6A)	dementia-preventive effect in passive avoidance test ([1]; alone in a low amount: 2 mg/kg or 3 mg/kg decursinol)	number of arm entries (spontaneous movement) ([2]; 7.5 or 15 mg/kg daily in fodder for 4 weeks, FIG. 6C)	alternation behavior (%) ([2]; 7.5 or 15 mg/kg daily in fodder for 4 weeks, FIG. 6B)	OX-42 staining (OX-42)	decrease in the passive avoidance response time ([1]; 0.002, 0.004 and 0.006% (w/v) in drinking water for 4 weeks before β-amyloid(1-42), FIG. 3A)	passive avoidance response time ([1]; 0.006% (w/v) in drinking water for 1, 2, 3 and 4 weeks, FIG. 3B)	dementia-preventive effect in passive avoidance test ([1]; alone in a low amount: 0.002% or 0.003% (w/v) ferulic acid)	LDH concentration in culture medium [3]	number of arm entries (spontaneous movement) ([2]; 0.006% (w/v) for 1 to 4 weeks, FIG. 4B)	alternation behavior (%) ([2]; 0.006% (w/v) for 1 to 4 weeks, FIG. 4A)	ChAT staining [4]
CC1(C)Oc2cc3oc(=O)ccc3cc2C[C@@H]1O [decursinol]	prevented	no dementia-preventive effect	nearly the same for all groups	higher and increased dose-dependently	–	–	–	–	–	–	–	–
COc1cc(/C=C/C(=O)O)ccc1O [ferulic acid]	–	–	–	–	much less pronounced	prevented dose-dependently	becomes increasingly higher with the period of administration	no dementia-preventive effect	much lower	nearly the same for all groups	higher and increased in proportion to the period of administration	the decrease was suppressed
